Laboratory results taken from US6737383B1, “Herbicidal oxadiazolidines” (priority 1999, dated 2004).

How the values were obtained:
bedstraw = test: Test B pre/postemergence bedstraw; assay type: in vivo, Galium aparine
Outline: (§1)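 Response is a visual 0-to-10 score relative to untreated plants, where 0 means no effect and 10 means complete control, taken twelve to sixteen days after application. Treatments went onto soil at planting and onto foliage of 1- to 4-leaf plants, using a surfactant-containing non-phytotoxic solvent.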

blackgrass = test: Test B pre/postemergence blackgrass; assay type: in vivo, Alopecurus myosuroides
Outline: as §1

surinam grass = test: Test B pre/postemergence surinam grass; assay type: in vivo, Brachiaria decumbens
Outline: as §1

cocklebur = test: Test B pre/postemergence cocklebur; assay type: in vivo, Xanthium strumarium
Outline: as §1

corn = test: Test B pre/postemergence corn; assay type: in vivo, Zea mays
Outline: as §1

crabgrass = test: Test B pre/postemergence crabgrass; assay type: in vivo, Digitaria sanguinalis
Outline: as §1

giant foxtail = test: Test B pre/postemergence giant foxtail; assay type: in vivo, Setaria faberii
Outline: as §1

morningglory = test: Test B pre/postemergence morningglory; assay type: in vivo, Ipomoea hederacea
Outline: as §1

pigweed = test: Test B pre/postemergence pigweed; assay type: in vivo, Amaranthus retroflexus
Outline: as §1

rape = test: Test B pre/postemergence rape; assay type: in vivo, Brassica napus
Outline: as §1

soybean = test: Test B pre/postemergence soybean; assay type: in vivo, Glycine max
Outline: as §1

sugar beet = test: Test B pre/postemergence sugar beet; assay type: in vivo, Beta vulgaris
Outline: as §1

velvetleaf = test: Test B pre/postemergence velvetleaf; assay type: in vivo, Abutilon theophrasti
Outline: as §1

wheat = test: Test B pre/postemergence wheat; assay type: in vivo, Triticum aestivum
Outline: as §1

wild oat = test: Test B pre/postemergence wild oat; assay type: in vivo, Avena fatua
Outline: as §1

purple nutsedge = test: Test B pre/postemergence purple nutsedge; assay type: in vivo, Cyperus rotundus
Outline: as §1

[1] = Postemergence, Rate 125 g/ha, scale of 0 to 10 where 0 is no effect and 10 is complete control
[2] = Preemergence, Rate 62 g/ha, scale of 0 to 10 where 0 is no effect and 10 is complete control
[3] = Preemergence, Rate 125 g/ha, 0 is no effect, 10 is complete control
[4] = Preemergence, Rate 250 g/ha, scale 0 to 10, 0 is no effect, 10 is complete control
[5] = Preemergence, Rate 500 g/ha, scale 0 to 10 (0 no effect, 10 complete control)
[6] = Rate 62 g/ha, Postemergence, scale of 0 to 10 where 0 is no effect and 10 is complete control
[7] = Rate 250 g/ha, Postemergence, scale 0 to 10, 0 is no effect, 10 is complete control
[8] = Rate 500 g/ha, Postemergence, scale 0 to 10

Compound: CC(C)N(C(=O)n1oc(=O)n([C@H](C)c2ccccc2)c1=O)c1ccc(Cl)cc1 [Compound 178]
- Bedstraw plant response rating (bedstraw; [1]): 0
- Bedstraw plant response rating (bedstraw; [2]): 0
- Bedstraw plant response rating (0 to 10 scale) (bedstraw; [3]): 0
- Bedstraw plant response rating (bedstraw; [4]): 0
- Bedstraw plant response rating (bedstraw; [5]): 0
- Bedstraw plant response rating (bedstraw; [6]): 0
- Plant response rating, Bedstraw (bedstraw; [7]): 0
- Bedstraw plant response rating (bedstraw; [8]): 0
- Blackgrass plant response rating (blackgrass; [1]): 0
- Blackgrass plant response rating (blackgrass; [2]): 0
- Blackgrass plant response rating (0 to 10 scale) (blackgrass; [3]): 0
- Blackgrass plant response rating (blackgrass; [4]): 0
- Blackgrass plant response rating (blackgrass; [5]): 3
- Blackgrass plant response rating (blackgrass; [6]): 0
- Plant response rating, Blackgrass (blackgrass; [7]): 0
- B. signalgrass plant response rating (surinam grass; [1]): 0
- B. signalgrass plant response rating (surinam grass; [2]): 6
- B. signalgrass plant response rating (0 to 10 scale) (surinam grass; [3]): 7
- B. signalgrass plant response rating (surinam grass; [4]): 8
- B. signalgrass plant response rating (surinam grass; [5]): 9
- B. signalgrass plant response rating (surinam grass; [6]): 0
- Plant response rating, B. signalgrass (surinam grass; [7]): 0
- B. signalgrass plant response rating (surinam grass; Rate 500 g/ha, Postemergence, scale 0 to 10, 0 no effect, 10 complete control): 2
- Cocklebur plant response rating (cocklebur; [1]): 0
- Cocklebur plant response rating (cocklebur; [2]): 0
- Cocklebur plant response rating (0 to 10 scale) (cocklebur; [3]): 0
- Cocklebur plant response rating (cocklebur; [4]): 0
- Cocklebur plant response rating (cocklebur; [5]): 0
- Cocklebur plant response rating (cocklebur; [6]): 0
- Plant response rating, Cocklebur (cocklebur; [7]): 0
- Cocklebur plant response rating (cocklebur; [8]): 0
- Corn plant response rating (corn; [1]): 0
- Corn plant response rating (corn; [2]): 0
- Corn plant response rating (0 to 10 scale) (corn; [3]): 0
- Corn plant response rating (corn; [4]): 0
- Corn plant response rating (corn; [5]): 0
- Corn plant response rating (corn; [6]): 0
- Plant response rating, Corn (corn; [7]): 0
- Corn plant response rating (corn; [8]): 0
- Crabgrass plant response rating (crabgrass; [1]): 0
- Crabgrass plant response rating (crabgrass; [2]): 0
- Crabgrass plant response rating (0 to 10 scale) (crabgrass; [3]): 2
- Crabgrass plant response rating (crabgrass; [4]): 8
- Crabgrass plant response rating (crabgrass; [5]): 9
- Crabgrass plant response rating (crabgrass; [6]): 0
- Plant response rating, Crabgrass (crabgrass; [7]): 0
- Crabgrass plant response rating (crabgrass; [8]): 2
- Giant foxtail plant response rating (giant foxtail; [1]): 0
- Giant foxtail plant response rating (giant foxtail; [2]): 4
- Giant foxtail plant response rating (0 to 10 scale) (giant foxtail; [3]): 4
- Giant foxtail plant response rating (giant foxtail; [4]): 8
- Giant foxtail plant response rating (giant foxtail; [5]): 9
- Giant foxtail plant response rating (giant foxtail; [6]): 0
- Plant response rating, Giant foxtail (giant foxtail; [7]): 0
- Giant foxtail plant response rating (giant foxtail; [8]): 2
- Morningglory plant response rating (morningglory; [1]): 2
- Morningglory plant response rating (morningglory; [2]): 0
- Morningglory plant response rating (0 to 10 scale) (morningglory; [3]): 0
- Morningglory plant response rating (morningglory; [4]): 0
- Morningglory plant response rating (morningglory; [5]): 0
- Morningglory plant response rating (morningglory; [6]): 2
- Plant response rating, Morningglory (morningglory; [7]): 2
- Morningglory plant response rating (morningglory; [8]): 3
- Redroot pigweed plant response rating (pigweed; [1]): 7
- Redroot pigweed plant response rating (pigweed; [2]): 0
- Redroot pigweed plant response rating (0 to 10 scale) (pigweed; [3]): 0
- Redroot pigweed plant response rating (pigweed; [4]): 6
- Redroot pigweed plant response rating (pigweed; [5]): 10
- Redroot pigweed plant response rating (pigweed; [6]): 0
- Redroot pigweed plant response rating (pigweed; [8]): 7
- Rape plant response rating (rape; [1]): 0
- Rape plant response rating (rape; [2]): 0
- Rape plant response rating (0 to 10 scale) (rape; [3]): 0
- Rape plant response rating (rape; [4]): 0
- Rape plant response rating (rape; [5]): 0
- Rape plant response rating (rape; [6]): 0
- Plant response rating, Rape (rape; [7]): 0
- Rape plant response rating (rape; [8]): 0
- Soybean plant response rating (soybean; [1]): 1
- Soybean plant response rating (soybean; [2]): 0
- Soybean plant response rating (0 to 10 scale) (soybean; [3]): 0
- Soybean plant response rating (soybean; [4]): 0
- Soybean plant response rating (soybean; [5]): 0
- Soybean plant response rating (soybean; [6]): 1
- Plant response rating, Soybean (soybean; [7]): 2
- Soybean plant response rating (soybean; [8]): 2
- Sugarbeets plant response rating (sugar beet; [1]): 0
- Sugarbeets plant response rating (sugar beet; [2]): 0
- Sugarbeets plant response rating (0 to 10 scale) (sugar beet; [3]): 0
- Sugarbeets plant response rating (sugar beet; [4]): 0
- Sugarbeets plant response rating (sugar beet; [5]): 0
- Sugarbeets plant response rating (sugar beet; [6]): 0
- Plant response rating, Sugarbeets (sugar beet; [7]): 0
- Sugarbeets plant response rating (sugar beet; [8]): 0
- Velvetleaf plant response rating (velvetleaf; [2]): 0
- Velvetleaf plant response rating (0 to 10 scale) (velvetleaf; [3]): 0
- Velvetleaf plant response rating (velvetleaf; [4]): 0
- Velvetleaf plant response rating (velvetleaf; [5]): 0
- Plant response rating, Velvetleaf (velvetleaf; [7]): 0
- Velvetleaf plant response rating (velvetleaf; [8]): 0
- Wheat plant response rating (wheat; [2]): 0
- Wheat plant response rating (0 to 10 scale) (wheat; [3]): 0
- Wheat plant response rating (wheat; [4]): 0
- Wheat plant response rating (wheat; [5]): 0
- Plant response rating, Wheat (wheat; [7]): 0
- Wheat plant response rating (wheat; [8]): 2
- Wild oats plant response rating (wild oat; [2]): 0
- Wild oats plant response rating (0 to 10 scale) (wild oat; [3]): 0
- Wild oats plant response rating (wild oat; [4]): 0
- Wild oats plant response rating (wild oat; [5]): 3
- Plant response rating, Wild oats (wild oat; [7]): 0
- Wild oats plant response rating (wild oat; [8]): 0
- Nutsedge plant response rating (purple nutsedge; [1]): 0
- Nutsedge plant response rating (purple nutsedge; [2]): 0
- Nutsedge plant response rating (0 to 10 scale) (purple nutsedge; [3]): 0
- Nutsedge plant response rating (purple nutsedge; [4]): 0
- Nutsedge plant response rating (purple nutsedge; [5]): 0
- Nutsedge plant response rating (purple nutsedge; [6]): 0
- Plant response rating, Nutsedge (purple nutsedge; [7]): 0
- Nutsedge plant response rating (purple nutsedge; [8]): 0
